These are literature values, as cited in US20110171138A1, “SUBSTANTIALLY PURE DEFERASIROX AND PROCESSES FOR THE PREPARATION THEREOF” (ACTAVIS GROUP PTC EHF, priority 2008, published 2011).

The conditions of this data set: in water and in acid medium; the solubility increasing with pH.

Consider `O=C(O)c1ccc(-n2nc(-c3ccccc3O)nc2-c2ccccc2O)cc1` [Deferasirox, 4-[3,5-Bis(2-hydroxyphenyl)-1H-1,2,4-triazol-1-yl]benzoic acid], for which the solubility result is on record as “practically insoluble”.
